How the values were obtained:
EGFR wt = EGFR wt (Homo sapiens, UniProt P00533); assay: EGFR wt Lance assay; assay type: biochemical
Description: (§1) Inhibition is indicated as […] [nM] (“−”=not measured). Compounds having an activity designated as “A” provided an IC50≤100 nM; compounds having an activity designated as “B” provided an 100 nM<IC50≤500 nM; compounds having an activity designated as “C” provided an 500 nM<IC50≤1000 nM; compounds having an activity designated as “D” provided an 1000 nM<IC50≤100000 nM; and compounds having an activity designated as “E” provided an IC50>10000 nM.

H1975 = H1975 CellTiter-Glo; assay type: cell-based; conditions: Homo sapiens, NCI-H1975; 72 h compound incubation; read-out: H1975 CTG IC50
Procedure, shortened: (§2)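 ATP-based luminescent viability read after 72 h compound exposure (DMSO vehicle, range of concentrations), cells plated 24 h beforehand at 37° C, 5% CO2. IC50 by dose-response fitting; 10 μM Staurosporine and DMSO controls, Z′-factor ≥0.5 required.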

A431 = A431 CellTiter-Glo; assay type: cell-based; conditions: Homo sapiens, A-431; 72 h compound incubation; read-out: A431 CTG IC50
Procedure, shortened: as §2

HER2 INS YVMA = target: T1, HER2 INS YVMA (Homo sapiens, UniProt P04626, INS775YVMA); assay: Lance Kinase Activity Assay, HER2 INS YVMA (Her2 Exon 20 INSYVMA Lance); assay type: biochemical; conditions: biochemical Lance assay
T1 construct: purchased DPF
Procedure, shortened: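 IC50 was fitted to sigmoidal curves of TR-FRET signal (665 and 615 nm emission after 340 nm excitation) from an Eu anti-phospho antibody binding the phosphorylated ULight peptide. The ATP-started reaction ran 1 h at RT and was then quenched with 10 mM EDTA plus antibody for a further 1 h. Compounds were tested as 8-point, 3-fold dilutions.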

EGFR T790ML858R = EGFR T790ML858R (Homo sapiens, UniProt P00533, L858R/T790M); assay: EGFR T790ML858R Lance assay; assay type: biochemical
Description: as §1

H1781 = H1781 CellTiter-Glo; assay type: cell-based; conditions: NCI-H1781; 72 h compound incubation; read-out: H1781 CTG IC50
Procedure, shortened: as §2

[1] = Metabolic stability in mouse liver microsomes without cofactor NADPH; assay type: in vitro ADME; conditions: 3 μM test compound, mouse liver microsomes, without NADPH, 50 min, 37° C., LC-MS/MS
Procedure, shortened: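 Cofactor-free incubation: no NADPH added to mouse liver microsomes, with compound at 3 μM and 37° C. Remaining parent was quantified by LC-MS/MS at time points up to 50 minutes to track depletion.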

[2] = target: EGFR Exon 20 INSNPH Ba/F3 (Homo sapiens, UniProt P00533, DUP771-773, cells depend on it); assay: EGFR Exon 20 INSNPH Ba/F3 CellTiter-Glo; assay type: cell-based; conditions: CellTiter-Glo, 72 h, read-out: EGFR Exon 20 INSNPH Ba/F3 CTG IC50
Procedure, shortened: (§3)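 Ba/F3 cells dependent on the mutant kinase, seeded and grown 24 h, then treated with compound for 72 h at 37 °C, 5% CO2. Viability by CellTiter-Glo ATP luminescence versus DMSO and 10 μM staurosporine controls; IC50 from dose-response fit, plates accepted at Z′ ≥0.5; bins A ≤100 nM to E >10000 nM.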

[3] = target: Her2 Exon 20 INSYVMA Ba/F3 (Homo sapiens, UniProt P04626, DUP772-775, cells depend on it); assay: Her2 Exon 20 INSYVMA Ba/F3 CellTiter-Glo; assay type: cell-based; conditions: CellTiter-Glo, 72 h, read-out: Her2 Exon 20 INSYVMA Ba/F3 CTG IC50
Procedure, shortened: as §3

Chain of EGFR T790ML858R (P00533 25-1210 T790M/L858R): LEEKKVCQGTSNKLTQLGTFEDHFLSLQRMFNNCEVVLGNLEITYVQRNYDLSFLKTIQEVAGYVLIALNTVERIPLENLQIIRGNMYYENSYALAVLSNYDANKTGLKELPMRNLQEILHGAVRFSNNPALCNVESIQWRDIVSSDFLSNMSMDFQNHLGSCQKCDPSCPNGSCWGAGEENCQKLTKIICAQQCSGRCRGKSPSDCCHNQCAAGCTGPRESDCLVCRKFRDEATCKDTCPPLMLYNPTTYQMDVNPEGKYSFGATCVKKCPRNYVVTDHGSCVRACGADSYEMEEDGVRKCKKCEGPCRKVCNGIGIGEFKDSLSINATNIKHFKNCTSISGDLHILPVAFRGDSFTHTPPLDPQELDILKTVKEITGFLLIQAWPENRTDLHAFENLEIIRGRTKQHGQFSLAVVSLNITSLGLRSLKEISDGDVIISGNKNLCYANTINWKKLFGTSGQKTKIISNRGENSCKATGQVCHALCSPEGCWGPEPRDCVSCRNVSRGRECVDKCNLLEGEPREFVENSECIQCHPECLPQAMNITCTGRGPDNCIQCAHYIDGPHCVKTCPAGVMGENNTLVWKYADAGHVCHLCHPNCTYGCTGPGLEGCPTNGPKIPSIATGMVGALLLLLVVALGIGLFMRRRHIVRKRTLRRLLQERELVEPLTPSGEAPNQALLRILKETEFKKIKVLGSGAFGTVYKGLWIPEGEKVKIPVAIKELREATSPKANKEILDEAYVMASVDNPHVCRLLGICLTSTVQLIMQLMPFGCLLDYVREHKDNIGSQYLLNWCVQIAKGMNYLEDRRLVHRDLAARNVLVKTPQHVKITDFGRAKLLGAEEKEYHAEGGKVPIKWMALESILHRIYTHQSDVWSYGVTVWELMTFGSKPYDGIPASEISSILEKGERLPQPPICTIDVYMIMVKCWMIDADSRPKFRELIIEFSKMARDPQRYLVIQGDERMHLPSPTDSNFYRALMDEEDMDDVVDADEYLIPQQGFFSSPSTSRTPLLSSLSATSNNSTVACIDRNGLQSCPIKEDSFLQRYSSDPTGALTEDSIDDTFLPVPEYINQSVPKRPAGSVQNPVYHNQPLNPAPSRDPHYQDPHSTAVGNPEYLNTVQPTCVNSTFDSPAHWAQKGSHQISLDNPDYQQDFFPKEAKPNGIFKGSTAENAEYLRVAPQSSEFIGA
Chain of EGFR Exon 20 INSNPH Ba/F3 (P00533 with tags, fused parts or gaps DUP771-773): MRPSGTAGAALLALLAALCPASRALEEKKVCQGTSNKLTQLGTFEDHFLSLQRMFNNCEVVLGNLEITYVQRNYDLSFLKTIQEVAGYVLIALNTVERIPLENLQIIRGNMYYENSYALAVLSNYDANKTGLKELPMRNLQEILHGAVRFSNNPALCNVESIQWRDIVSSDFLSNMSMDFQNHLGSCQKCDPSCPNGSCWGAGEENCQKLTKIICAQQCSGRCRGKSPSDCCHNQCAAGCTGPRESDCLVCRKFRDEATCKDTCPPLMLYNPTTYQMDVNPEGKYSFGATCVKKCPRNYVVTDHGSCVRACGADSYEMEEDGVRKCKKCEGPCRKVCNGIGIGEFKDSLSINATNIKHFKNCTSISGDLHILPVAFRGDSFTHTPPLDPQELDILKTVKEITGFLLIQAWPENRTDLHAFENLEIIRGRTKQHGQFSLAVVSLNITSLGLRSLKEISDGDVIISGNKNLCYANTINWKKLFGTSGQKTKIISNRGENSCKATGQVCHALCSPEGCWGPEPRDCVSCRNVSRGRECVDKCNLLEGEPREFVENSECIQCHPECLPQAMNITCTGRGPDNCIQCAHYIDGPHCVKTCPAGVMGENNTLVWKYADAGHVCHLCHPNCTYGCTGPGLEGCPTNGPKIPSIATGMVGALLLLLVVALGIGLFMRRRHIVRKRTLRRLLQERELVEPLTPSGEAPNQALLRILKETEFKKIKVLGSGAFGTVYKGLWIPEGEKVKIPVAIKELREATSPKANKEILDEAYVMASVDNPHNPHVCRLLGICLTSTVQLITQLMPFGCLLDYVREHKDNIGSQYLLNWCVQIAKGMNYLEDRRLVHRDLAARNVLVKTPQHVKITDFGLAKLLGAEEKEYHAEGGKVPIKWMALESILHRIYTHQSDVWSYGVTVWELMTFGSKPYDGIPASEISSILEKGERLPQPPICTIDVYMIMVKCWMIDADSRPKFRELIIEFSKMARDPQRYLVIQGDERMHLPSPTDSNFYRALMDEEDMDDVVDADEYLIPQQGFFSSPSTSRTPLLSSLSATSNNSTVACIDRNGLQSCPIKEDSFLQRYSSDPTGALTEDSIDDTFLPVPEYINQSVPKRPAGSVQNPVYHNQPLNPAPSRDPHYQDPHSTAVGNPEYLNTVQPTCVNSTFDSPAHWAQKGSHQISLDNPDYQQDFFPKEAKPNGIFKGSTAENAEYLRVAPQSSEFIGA
T1 sequence (P04626 with tags, fused parts or gaps INS775YVMA): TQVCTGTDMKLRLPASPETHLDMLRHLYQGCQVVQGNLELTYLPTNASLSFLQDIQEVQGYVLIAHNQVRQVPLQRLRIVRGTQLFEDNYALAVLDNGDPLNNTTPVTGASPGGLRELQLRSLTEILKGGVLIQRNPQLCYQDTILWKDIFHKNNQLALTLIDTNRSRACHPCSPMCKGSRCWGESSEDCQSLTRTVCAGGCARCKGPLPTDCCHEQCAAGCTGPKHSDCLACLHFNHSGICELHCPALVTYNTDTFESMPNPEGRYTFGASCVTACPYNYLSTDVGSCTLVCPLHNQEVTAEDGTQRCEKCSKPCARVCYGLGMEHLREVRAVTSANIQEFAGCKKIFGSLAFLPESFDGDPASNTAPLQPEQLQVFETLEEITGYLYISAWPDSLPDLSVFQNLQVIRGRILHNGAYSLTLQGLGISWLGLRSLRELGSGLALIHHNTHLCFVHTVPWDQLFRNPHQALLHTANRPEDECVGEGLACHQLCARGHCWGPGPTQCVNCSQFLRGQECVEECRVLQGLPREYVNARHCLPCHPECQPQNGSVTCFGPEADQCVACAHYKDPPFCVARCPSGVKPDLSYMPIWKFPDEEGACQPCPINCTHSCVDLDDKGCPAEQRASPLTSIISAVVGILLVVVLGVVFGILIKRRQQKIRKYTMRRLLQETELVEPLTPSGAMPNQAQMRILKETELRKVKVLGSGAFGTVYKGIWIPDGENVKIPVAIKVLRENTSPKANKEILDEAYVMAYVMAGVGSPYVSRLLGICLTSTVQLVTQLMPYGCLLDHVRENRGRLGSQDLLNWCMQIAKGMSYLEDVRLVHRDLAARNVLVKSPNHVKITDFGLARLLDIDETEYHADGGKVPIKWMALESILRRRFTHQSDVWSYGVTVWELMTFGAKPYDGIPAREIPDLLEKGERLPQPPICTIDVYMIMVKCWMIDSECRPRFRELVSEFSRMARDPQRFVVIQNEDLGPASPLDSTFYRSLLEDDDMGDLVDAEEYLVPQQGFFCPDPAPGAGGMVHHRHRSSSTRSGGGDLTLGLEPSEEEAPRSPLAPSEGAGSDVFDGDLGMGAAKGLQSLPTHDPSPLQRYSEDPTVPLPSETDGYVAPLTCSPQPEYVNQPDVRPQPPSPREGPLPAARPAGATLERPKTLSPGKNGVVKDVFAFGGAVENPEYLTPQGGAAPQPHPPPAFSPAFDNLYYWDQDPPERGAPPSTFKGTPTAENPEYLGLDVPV
Chain of Her2 Exon 20 INSYVMA Ba/F3 (P04626 with tags, fused parts or gaps DUP772-775): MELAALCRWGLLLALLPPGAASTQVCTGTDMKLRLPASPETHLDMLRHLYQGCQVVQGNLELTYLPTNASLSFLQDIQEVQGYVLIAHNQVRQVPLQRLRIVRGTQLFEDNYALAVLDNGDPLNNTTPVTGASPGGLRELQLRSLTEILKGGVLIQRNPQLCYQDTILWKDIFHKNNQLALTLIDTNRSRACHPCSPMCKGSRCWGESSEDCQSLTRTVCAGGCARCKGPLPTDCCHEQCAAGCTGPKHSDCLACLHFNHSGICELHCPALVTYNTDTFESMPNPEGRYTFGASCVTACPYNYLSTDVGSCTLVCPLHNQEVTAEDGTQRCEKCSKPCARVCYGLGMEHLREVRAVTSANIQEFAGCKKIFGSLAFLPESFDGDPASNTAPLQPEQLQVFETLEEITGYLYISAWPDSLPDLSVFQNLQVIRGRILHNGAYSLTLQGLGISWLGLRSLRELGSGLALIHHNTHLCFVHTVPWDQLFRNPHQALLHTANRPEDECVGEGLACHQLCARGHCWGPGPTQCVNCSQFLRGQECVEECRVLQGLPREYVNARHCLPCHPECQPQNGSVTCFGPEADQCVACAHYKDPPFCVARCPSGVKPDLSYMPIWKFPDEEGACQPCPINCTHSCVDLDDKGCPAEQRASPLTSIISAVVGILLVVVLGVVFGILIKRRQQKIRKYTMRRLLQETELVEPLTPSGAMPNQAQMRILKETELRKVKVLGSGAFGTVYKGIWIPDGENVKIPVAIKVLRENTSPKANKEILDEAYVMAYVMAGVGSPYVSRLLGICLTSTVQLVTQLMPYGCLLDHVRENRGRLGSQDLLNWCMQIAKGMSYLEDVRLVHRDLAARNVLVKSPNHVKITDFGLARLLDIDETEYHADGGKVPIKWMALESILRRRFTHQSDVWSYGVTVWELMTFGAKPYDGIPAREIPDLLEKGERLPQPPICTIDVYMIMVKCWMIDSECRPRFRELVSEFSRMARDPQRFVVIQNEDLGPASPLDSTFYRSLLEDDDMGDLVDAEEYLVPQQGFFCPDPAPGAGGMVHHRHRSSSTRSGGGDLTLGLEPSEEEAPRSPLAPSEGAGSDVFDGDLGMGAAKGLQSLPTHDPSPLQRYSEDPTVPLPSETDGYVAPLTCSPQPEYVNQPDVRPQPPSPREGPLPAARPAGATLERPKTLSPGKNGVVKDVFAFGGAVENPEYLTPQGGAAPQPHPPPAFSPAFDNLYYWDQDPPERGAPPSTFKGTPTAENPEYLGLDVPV

IC50 (EGFR wt)	IC50 (H1975)	IC50 (A431)	IC50 (HER2 INS YVMA)	IC50 (EGFR T790ML858R)	IC50 (H1781)	Stability in presence of mouse liver microsomes without cofactor NADPH [% remaining after 50 min] [1]	GI50 [2]	GI50 [3]	Compound
≤ 100 nM	100 to 500 nM	1000 to 100000 nM	≤ 100 nM	≤ 100 nM	1000 to 100000 nM	>99 % remaining after 50 min	500 to 1000 nM	500 to 1000 nM	C=CC(=O)N1CCCc2ccc(-c3c(-c4ccc(N5CCN(C)CC5)cc4)[nH]c4nccc(Cl)c34)cc21 [Example 86, 1-(7-(4-chloro-2-(4-(4-methylpiperazin-1-yl)phenyl)-1H-pyrrolo[2,3-b]pyridin-3-yl)-3,4-dihydroquinolin-1(2H)-yl)prop-2-en-1-one 2,2,2-trifluoroacetate]
≤ 100 nM	≤ 100 nM	100 to 500 nM	≤ 100 nM	≤ 100 nM	100 to 500 nM	>99 % remaining after 50 min	≤ 100 nM	≤ 100 nM	C=CC(=O)Nc1cc(-c2c(-c3ccc(C4CCN(C)CC4)cc3)[nH]c3nccc(Cl)c23)ccc1C [Example 3, N-(5-(4-chloro-2-(4-(1-methylpiperidin-4-yl)phenyl)-1H-pyrrolo[2,3-b]pyridin-3-yl)-2-methylphenyl)acrylamide]
≤ 100 nM	≤ 100 nM	100 to 500 nM	≤ 100 nM	≤ 100 nM	100 to 500 nM	90 % remaining after 50 min	100 to 500 nM	100 to 500 nM	C=CC(=O)Nc1cc(-c2c(-c3cccc(N4CCN(C)CC4)c3)[nH]c3nccc(Cl)c23)ccc1C [Example 17, N-(5-(4-chloro-2-(3-(4-methylpiperazin-1-yl)phenyl)-1H-pyrrolo[2,3-b]pyridin-3-yl)-2-methylphenyl)acrylamide]
≤ 100 nM	≤ 100 nM	100 to 500 nM	≤ 100 nM	≤ 100 nM	100 to 500 nM	92 % remaining after 50 min	100 to 500 nM	100 to 500 nM	C=CC(=O)Nc1cc(-c2c(-c3ccc(N4CCNCC4)cc3)[nH]c3nccc(Cl)c23)ccc1C [Example 96, N-(5-(4-chloro-2-(4-(piperazin-1-yl)phenyl)-1H-pyrrolo[2,3-b]pyridin-3-yl)-2-methylphenyl)acrylamide 2,2,2-trifluoroacetate]

Source: patent US20220370440A1 (Lead Discovery Center GmbH, priority 2018, published 2022)
